Where a SMILES comes first, the peptide text is derived from it. Bridges are numbered along the chain shown (N, C = ends). [ ]: non-standard residue; d: D form. The star is where a group is joined. hPhe(3,5-F2-4-CF3) = N[C@@H](CCc1cc(F)c(C(F)(F)F)c(F)c1)C(=O)O; hPhe(3-Cl-4-CF3) = N[C@@H](CCc1ccc(C(F)(F)F)c(Cl)c1)C(=O)O; NPrPhe(4-CF3) = CCCN[C@@H](Cc1ccc(C(F)(F)F)cc1)C(=O)O; NMeGly(cPent) = CN[C@H](C(=O)O)C1CCCC1; Pro(4,4-F2) = O=C(O)[C@@H]1CC(F)(F)CN1; Pro(4S-Me) = C[C@@H]1CN[C@H](C(=O)O)C1; NMeD = CN[C@@H](CC(=O)O)C(=O)O; NMeL = CN[C@@H](CC(C)C)C(=O)O; αMeS = C[C@](N)(CO)C(=O)O; Morpholide = C1CN(*)CCO1; Ac5c = NC1(C(=O)O)CCCC1; Aze = O=C(O)[C@@H]1CCN1; Sar = CNCC(=O)O; tBu = CC(C)(C)*
Experiments:
[1] = biological target: GDP-bound NRAS wild-type protein (Homo sapiens, UniProt P01111); assay: Binding to NRAS by surface plasmon resonance (SPR), KD and KD ratio to KRAS
In short: (§1)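 Biotinylated GDP-bound RAS was captured at about 100–300 RU. Running buffer: HBS pH 7.4, 10 mM MgCl2, 10 µM GDP, 1 mM DTT, 0.01% Tween 20, 4% DMSO.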

[2] = biological target: HRAS wild-type protein (Homo sapiens, UniProt P01112); assay: Binding to HRAS by surface plasmon resonance (SPR), KD and KD ratio to KRAS
In short: as §1

[3] = system: human lung cancer strain NCI-H441; assay type: cell-based
In short: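 Step one: dispense the test compound in serial DMSO dilutions. Step three: add the reagent and measure […].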

[4] = ratio of the KD value with respect to GDP-bound NRAS wild-type protein to the KD value with respect to KRAS
[5] = ratio of the KD value with respect to HRAS wild-type protein to the KD value with respect to KRAS
[6] = ratio of KD for GDP-bound NRAS wild-type protein to KD for KRAS
[7] = ratio of KD for HRAS wild-type protein to KD for KRAS
[8] = ratio of KD value for GDP-bound NRAS wild-type protein to KD value for KRAS (SPR)
[9] = ratio of KD value for HRAS wild-type protein to KD value for KRAS (SPR)

GDP-bound NRAS wild-type protein, sequence (P01111 whole entry): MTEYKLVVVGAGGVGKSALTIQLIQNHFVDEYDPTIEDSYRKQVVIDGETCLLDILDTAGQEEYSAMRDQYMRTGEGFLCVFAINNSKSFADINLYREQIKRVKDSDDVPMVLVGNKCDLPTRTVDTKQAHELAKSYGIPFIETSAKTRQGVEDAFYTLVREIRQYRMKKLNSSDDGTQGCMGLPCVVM
HRAS wild-type protein, sequence (P01112 whole entry): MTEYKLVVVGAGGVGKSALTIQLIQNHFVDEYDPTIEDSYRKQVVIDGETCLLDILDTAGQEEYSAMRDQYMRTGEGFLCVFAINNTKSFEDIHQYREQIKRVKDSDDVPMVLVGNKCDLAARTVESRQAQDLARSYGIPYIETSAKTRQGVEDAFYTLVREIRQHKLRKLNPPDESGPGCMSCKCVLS

Compound	IC50 [3] [nM]	NRAS /KRAS [1, 4]	HRAS /KRAS [2, 5]	NRAS /KRAS [1, 6]	HRAS /KRAS [2, 7]	NRAS /KRAS [1, 8]	HRAS /KRAS [2, 9]
CC[C@H](C)[C@@H]1NC(=O)[C@H](CC(C)C)N(C)C(=O)C[C@@H](C(=O)N2CCOCC2)N(C)C(=O)[C@H](CC(F)(F)F)N(C)C(=O)C2(CCCC2)NC(=O)[C@@H]2CCCN2C(=O)[C@H](CCc2cc(F)c(C(F)(F)F)c(F)c2)NC(=O)CN(C)C(=O)[C@H](Cc2ccc(C(F)(F)F)cc2)N2CCCC[C@@H](C2=O)N(C)C(=O)CN(C)C1=O [PP0568]	79.5	B (a compound having 3 or more and less than 10 is denoted as B)	B (a compound having 3 or more and less than 10 is denoted as B)	–	–	–	–
CCO[C@@H]1C[C@H]2C(=O)NC3(CCC3)C(=O)N(C)[C@@H](C3CCCC3)C(=O)N(C)[C@H](C(=O)N3CCOCC3)CC(=O)N(C)C[C@@H](C)C(=O)N[C@@H]([C@@H](C)CC)C(=O)N(C)CC(=O)N(C)[C@H]3CCCCN(C3=O)[C@@H](Cc3ccc(C(F)(F)F)cc3)C(=O)N(C)CC(=O)N[C@@H](CCc3cc(F)c(C(F)(F)F)c(F)c3)C(=O)N2C1 [PP0721]	4700	B (a compound having 3 or more and less than 10 is denoted as B)	B (a compound having 3 or more and less than 10 is denoted as B)	–	–	–	–
C#CC[C@H]1C(=O)N[C@@H]([C@@H](C)CC)C(=O)N(C)CC(=O)N(C)[C@H]2CCCCN(C2=O)[C@@H](Cc2ccc(C(F)(F)F)cc2)C(=O)N(C)CC(=O)N[C@@H](CCc2cc(F)c(C(F)(F)F)c(F)c2)C(=O)N2C[C@H](OCC)C[C@H]2C(=O)NC2(CCC2)C(=O)N(C)[C@@H](C2CCCC2)C(=O)N(C)[C@H](C(=O)N2CCOCC2)CC(=O)N1C [PP0711]	6.5	C (A compound having a KD ratio of 0.1 or more and less than 3 is denoted as C)	B (a compound having 3 or more and less than 10 is denoted as B)	–	–	–	–
CCCN1C(=O)[C@@H]2CCN2C(=O)CN(C)C(=O)[C@H]([C@@H](C)CC)NC(=O)[C@H](CC(C)C)N(C)C(=O)C[C@@H](C(=O)N2CCOCC2)N(C)C(=O)[C@H](C2CCCC2)N(C)C(=O)C2(CCCC2)NC(=O)[C@@H]2CC(F)(F)CN2C(=O)[C@H](CCc2ccc(C(F)(F)F)c(Cl)c2)NC(=O)CN(C)C(=O)[C@@H]1Cc1ccc(C(F)(F)F)cc1 [PP0408] ([NMeL]I[Sar][Aze][NPrPhe(4-CF3)][Sar][hPhe(3-Cl-4-CF3)][Pro(4,4-F2)][Ac5c][NMeGly(cPent)][NMeD]-Morpholide; lactam N-11)	5.7	C (A compound having a KD ratio of 0.1 or more and less than 3 is denoted as C)	B (a compound having 3 or more and less than 10 is denoted as B)	–	–	–	–
CCO[C@@H]1C[C@H]2C(=O)NC3(CCCC3)C(=O)N(C)[C@@H](C3CCCC3)C(=O)N(C)[C@H](C(=O)N3CCOCC3)CC(=O)N(C)[C@@H](CC(C)C)C(=O)N[C@@H]([C@@H](C)CC)C(=O)N(C)CC(=O)N(C)[C@H]3CCCCN(C3=O)[C@@H](Cc3ccc(C(F)(F)F)cc3)C(=O)N(C)CC(=O)N[C@@H](CCc3cc(F)c(C(F)(F)F)c(F)c3)C(=O)N2C1 [PP0554]	1.6	B (a compound having 3 or more and less than 10 is denoted as B)	B (a compound having 3 or more and less than 10 is denoted as B)	–	–	–	–
CCCN1C(=O)[C@@H]2CCN2C(=O)CN(C)C(=O)[C@H]([C@@H](C)CC)NC(=O)[C@H](CC(C)C)N(C)C(=O)C[C@@H](C(=O)N2CCOCC2)N(C)C(=O)[C@H](C2CCCC2)N(C)C(=O)C2(CCCC2)NC(=O)[C@@H]2C[C@H](C)CN2C(=O)[C@H](CCc2ccc(C(F)(F)F)c(Cl)c2)NC(=O)CN(C)C(=O)[C@@H]1Cc1ccc(C(F)(F)F)cc1 [PP0457] ([NMeL]I[Sar][Aze][NPrPhe(4-CF3)][Sar][hPhe(3-Cl-4-CF3)][Pro(4S-Me)][Ac5c][NMeGly(cPent)][NMeD]-Morpholide; lactam N-11)	12.1	C (A compound having a KD ratio of 0.1 or more and less than 3 is denoted as C)	B (a compound having 3 or more and less than 10 is denoted as B)	–	–	–	–

Now from value to compound, other results behind:

IC50 [3] [nM]	Compound	NRAS /KRAS [1, 4]	HRAS /KRAS [2, 5]	NRAS /KRAS [1, 6]	HRAS /KRAS [2, 7]	NRAS /KRAS [1, 8]	HRAS /KRAS [2, 9]
8.3	CCCC[C@H]1C(=O)N[C@@H]([C@@H](C)CC)C(=O)N(C)CC(=O)N(C)[C@H]2C/C=C\CCN(C2=O)[C@@H](Cc2ccc(C(F)(F)F)cc2)C(=O)N(C)CC(=O)N[C@@H](CCc2ccc(C(F)(F)F)c(OC)c2)C(=O)N2C[C@H](OCC)C[C@H]2C(=O)NC2(CCC2)C(=O)N(C)[C@@H](C2CCCC2)C(=O)N(C)[C@H](C(=O)N(C)CC)CC(=O)N1C [PP2840]	–	–	A (a compound having 10 or more and less than 20 is denoted as A)	A (a compound having 10 or more and less than 20 is denoted as A)	–	–
39.9	CCO[C@@H]1C[C@H]2C(=O)NC3(CC(C)(C)C3)C(=O)N(C)[C@@H](C3CCCC3)C(=O)N(CC)[C@H](C(=O)N(C)C)CC(=O)N(C)[C@@H](CC(C)C)C(=O)N[C@@H]([C@@H](C)CC)C(=O)NCC(=O)N(C)[C@H]3C/C=C\CCN(C3=O)[C@@H](Cc3ccc(C(F)(F)F)cc3)C(=O)N(C)CC(=O)N[C@@H](CCc3cc(F)c(C(F)(F)F)c(F)c3)C(=O)N2C1 [PP1773]	–	–	–	–	A (a compound having 10 or more and less than 20 is denoted as A)	A (a compound having 10 or more and less than 20 is denoted as A)
9.6	CCC[C@H]1C(=O)N[C@@H]([C@@H](C)CC)C(=O)N(C)CC(=O)N(C)[C@H]2C/C=C\CCN(C2=O)[C@@H](Cc2ccc(C)cc2)C(=O)N(C)CC(=O)N[C@@H](CCc2ccc3sc(F)c(C)c3c2)C(=O)N2C[C@H](OCC)C[C@H]2C(=O)NC2(CC(C)(C)C2)C(=O)N(C)[C@@H](C(CC)CC)C(=O)N(C)[C@H](C(=O)N(C)C)CC(=O)N1C [PP2894]	–	–	AA (a compound having 20 or more is denoted as AA)	A (a compound having 10 or more and less than 20 is denoted as A)	–	–
6.1	CCO[C@@H]1C[C@H]2C(=O)NC3(CC(C)(C)C3)C(=O)N(C)[C@@H](C3CCCC3)C(=O)N(C)[C@H](C(=O)N(C)C)CC(=O)N(C)[C@@H](CC)C(=O)N[C@@H]([C@@H](C)CC)C(=O)N(C)CC(=O)N(C)[C@H]3C/C=C\CCN(C3=O)[C@@H](Cc3ccc(C(F)F)cc3)C(=O)N(C)CC(=O)N[C@@H](CCc3cc(F)c(C(F)(F)F)c(F)c3)C(=O)N2C1 [PP2049]	A (a compound having 10 or more and less than 20 is denoted as A)	B (a compound having 3 or more and less than 10 is denoted as B)	–	–	–	–
186	CCCN1C(=O)[C@@H]2CCN2C(=O)CN(C)C(=O)[C@H]([C@@H](C)CC)NC(=O)[C@H](CC(C)C)N(C)C(=O)C[C@@H](C(=O)N2CCOCC2)N(C)C(=O)[C@H](C2CCCC2)N(C)C(=O)[C@](C)(COC(C)(C)C)NC(=O)[C@@H]2CCCN2C(=O)[C@H](CCc2cc(F)c(C(F)(F)F)c(F)c2)NC(=O)CN(C)C(=O)[C@@H]1Cc1ccc(C(F)(F)F)cc1 [PP0800] ([NMeL]I[Sar][Aze][NPrPhe(4-CF3)][Sar][hPhe(3,5-F2-4-CF3)]P[αMeS](tBu)[NMeGly(cPent)][NMeD]-Morpholide; lactam N-11)	–	–	C (A compound having a KD ratio of 0.1 or more and less than 3 is denoted as C)	B (a compound having 3 or more and less than 10 is denoted as B)	–	–
5.5	CCCN(C)C(=O)[C@@H]1CC(=O)N(C)[C@@H](CC2CC2)C(=O)N[C@@H]([C@@H](C)CC)C(=O)N(C)CC(=O)N(C)[C@H]2C/C=C\CCN(C2=O)[C@@H](Cc2ccc(C(F)(F)F)cc2)C(=O)N(C)CC(=O)N[C@@H](CCc2cc(F)c(C(F)(F)F)c(F)c2)C(=O)N2C[C@H](OCC)C[C@H]2C(=O)NC2(CC(F)(F)C2)C(=O)N(C)[C@@H](C2CCCC2)C(=O)N1C [PP1739]	–	–	–	–	AA (a compound having 20 or more is denoted as AA)	AA (a compound having 20 or more is denoted as AA)
3.7	CCCN1C(=O)CN(C)C(=O)CN(C)C(=O)[C@H]([C@@H](C)CC)NC(=O)[C@@H]2CCCCOc3ccc(cc3)C[C@H]1C(=O)N(C)CC(=O)N[C@@H](CCc1cc(F)c(C(F)(F)F)c(F)c1)C(=O)N1C[C@H](OCC)C[C@H]1C(=O)NC1(CCCC1)C(=O)N(C)[C@@H](C1CCCC1)C(=O)N(C)[C@H](C(=O)N(C)C)CC(=O)N2C [PP0894]	–	–	C (A compound having a KD ratio of 0.1 or more and less than 3 is denoted as C)	C (A compound having a KD ratio of 0.1 or more and less than 3 is denoted as C)	–	–
1.4	CCC[C@H]1C(=O)N[C@@H]([C@@H](C)CC)C(=O)N(C)CC(=O)N(C)[C@H]2C/C=C\CCN(C2=O)[C@@H](Cc2ccc(C(F)(F)F)cc2)C(=O)N(C)CC(=O)N[C@@H](CCc2cc(F)c(C(F)(F)F)c(F)c2)C(=O)N2C[C@H](F)C[C@H]2C(=O)NC2(CC(C)(C)C2)C(=O)N(C)[C@@H](C2CCCC2)C(=O)N(C)[C@H](C(=O)N(C)C)CC(=O)N1C [PP1689]	–	–	–	–	A (a compound having 10 or more and less than 20 is denoted as A)	B (a compound having 3 or more and less than 10 is denoted as B)
27.8	CCO[C@@H]1C[C@H]2C(=O)NC3(CC(C)(C)C3)C(=O)N(C)[C@@H](C(CC)CC)C(=O)N(C)[C@H](C(=O)N(C)C)CC(=O)N(C)[C@@H](CC3CCC3)C(=O)N[C@@H]([C@@H](C)CC)C(=O)N(C)CC(=O)N(C)[C@H]3C/C=C\CCN(C3=O)[C@@H](Cc3ccc(C(F)(F)F)cc3)C(=O)N(C)CC(=O)N[C@@H](CCc3ccc(Cl)c(Cl)c3)C(=O)N2C1 [PP2180]	AA (a compound having 20 or more is denoted as AA)	A (a compound having 10 or more and less than 20 is denoted as A)	–	–	–	–

Source: patent EP4603105A1, “PHARMACEUTICAL COMPOSITION CONTAINING CYCLIC COMPOUND HAVING SELECTIVE KRAS INHIBITORY EFFECT AGAINST HRAS AND NRAS” (CHUGAI SEIYAKU KABUSHIKI KAISHA, priority 2022, dated 2024)
